From article PMC6479099, “Aminoguanidines: New leads for treatment of Giardia duodenalis infection” (International Journal for Parasitology: Drugs and Drug …, 2019)
Where two headings read alike, the source gives them in different places.

Columns and labels:
[1] = tested on: Giardia duodenalis BAH2c2 strain, assemblage A; assay: Resazurin reduction assay, assemblage A isolate; format: cell-based; settings: BAH2c2, 24 h; for IC50: resazurin metabolic assay, read-out: IC50, Assemblage A
Experimental: G. duodenalis (BAH2c2 and BAH12 strain) was cultivated according to the method of Clark and Diamond in Keister's modified TYI-S-33 medium, supplemented with heat inactivated foetal bovine serum (Hyclone™, Thermo Fisher Scientific, Scoresby, Victoria, Australia) at 37 °C in plastic 9 mL screw-capped test tubes (nunc, Thermo Fisher Scientific, Scoresby, Victoria, Australia). Subcultures were performed once a confluent monolayer was observed, approximately 2–3 times per week ([Clark and Diamond, 2002]).
The in-vitro compound efficacy was determined using a resazurin reduction assay as previously described ([Benere et al., 2007]). The media of confluent cultures was replaced with fresh media and the cultures were placed on ice for 40 min to detach trophozoites. Trophozoites were enumerated using a haemocytometer and 50 000 trophozoites were added to each test well of a 96 well plate. Doubling or tripling dilutions of the test compounds were added to wells beginning at 25 or 50 μM compound concentration (previously prepared in DMSO). Metronidazole and DMSO (vehicle only) were used as controls. Plates were incubated under anaerobic conditions, using anaerobic gas generating sachets, (AnaeroGen, Thermo Fisher Scientific, Scoresby, Victoria, Australia) for 24 h at 37 °C. After incubation the media was removed and replaced with an equal volume of warm PBS. Resazurin (Alamarblue, Thermo Fisher Scientific, Scoresby, Victoria, Australia) was then added at 10% of the total volume of the wells. Plates were further incubated (1.5 h) for colour development and absorbance read at 570 nm and 630 nm. The percentage resazurin reduction was then calculated using the following formula:((εoxi630 x A570) – (εoxi570 x A630))/((εred570 x C630)-([…])) x 100Where: εoxi630 = 34798, εoxi570 = 80586, A570 = absorbance at 570 nm, A630 = absorbance at 630 nm, εred570 = 155677, εred630 = 5494, C630 = absorbance of negative control well at 630 nm and C570 = absorbance of negative control well at 570 nm.
For the resazurin reduction assay the mean and standard error of the mean were determined with each assay completed in triplicate. The IC50 was calculated using the log (inhibitor) vs. normalised response – variable slope function in Graphpad Prism. For the adherence assay mean and standard error of the mean were calculated and data analysed using an unpaired t-test, relative to untreated control.
The IC50 of each compound was determined using a resazurin reduction assay, which measures the metabolic activity of cells, using the log (inhibitor) vs. normalised response – variable slope function in Graphpad Prism. The compounds were tested against an assemblage A (BAH2c2, 24 h) and an assemblage B (BAH12, 24 h) isolate (Table 1). […] The effect of the compounds on the proliferation of Giardia trophozoites (BAH2c2) was also determined.
Absorbance was measured (630 and 570 nm), percent reduction of resazurin calculated and data presented as a percentage of the growth control. Treatment groups are: square - metronidazole; triangle –NCL 099; diamond - robenidine; and circle - NCL 062. Error ± SEM, n = 3. Data represents a typical experiment. Note the break in the x-axis indicates a change in the scale of drug concentration.

[2] = In vitro cytotoxicity (WST-1), human lung fibroblast; format: cell-based; settings: HEL 299 human lung fibroblast cells, 24 h exposure
Experimental: Cells were passaged every 3 days. Assays were performed in 96 well plates in duplicate. Wells were seeded with 50 000 cells.

[3] = tested on: Giardia duodenalis trophozoites; assay: Modified adherence assay; format: cell-based; settings: 4 μM, 5 h exposure
Experimental: A second screening method, based on counting adherent trophozoites, was developed and used to validate the primary screen method, modified from earlier adherence assay protocols ([Crouch et al., 1986]). The assay was prepared in 24 well plates with plastic coverslips placed in the bottom. Trophozoites were prepared as above by placing on ice and ∼5 × 10^5 cells/mL were added to each well. Drugs prepared in DMSO were added at the required concentration, with the DMSO concentration never exceeding 1%. Assay plates were incubated for 5 h at 37 °C under anaerobic conditions, the media removed and cells adhering to the coverslips were fixed with glutaraldehyde or methanol. Once the coverslips were dry, cells were stained with a Romanowsky stain variant (Rapid stain), fixed to a glass slide and imaged at 10x or 100x magnification. Images (10x magnification) were processed with DotCount v1.2 software (http://reuter.mit.edu/, 2008–2012 ^© Martin Reuter) to count the number of cells present and data analysed using GraphPad Prism version 6.00 for Windows, GraphPad Software, La Jolla California USA, www.graphpad.com. Images (100x magnification) were assessed for obvious morphological changes.
The results for the in vitro drug efficacy studies were analysed using GraphPad Prism version 6.00 for Windows, GraphPad Software, La Jolla California USA, www.graphpad.com. For the resazurin reduction assay the mean and standard error of the mean were determined with each assay completed in triplicate. The IC50 was calculated using the log (inhibitor) vs. normalised response – variable slope function in Graphpad Prism. For the adherence assay mean and standard error of the mean were calculated and data analysed using an unpaired t-test, relative to untreated control.
Fig. 3 Inhibition of adherence of Giardia duodenalis by metronidazole (Mz), robenidine, NCL 062 and NCL 099. Cells were exposed to the compounds for 5 h before staining. Stained cells were imaged at 10x magnification and counted using DotCount™ software. Each assay was completed in triplicate and 5 images taken per sample. Top. Number of adherent trophozoites after exposure to 4 μM of each compound for 5 h; Bottom. An example of the Dotcount software identifying trophozoites at higher magnification. Left: stained trophozoites, Right: highlighted trophozoites identified by the Dotcount software. Each highlighted cell is counted individually. Error ± SEM. * p-value <0.05, ** p-value <0.0001.

[4] = In vitro cytotoxicity, murine macrophage cells; settings: mouse
[5] = tested on: G. duodenalis trophozoites; assay: Giardia recovery assay; format: cell-based, Giardia duodenalis; settings: 5 h at 5x the IC50, counts at 24 and 48 h post exposure
Experimental: G. duodenalis trophozoites were harvested on ice as outlined above and 5 × 10^5 cells/mL were added to 1.5 mL centrifuge tubes. […] After exposure cells were collected by placing tubes on ice for 40 min followed by centrifugation at 900×g for 5 min. The supernatant was removed and cells were resuspended in 8 mL of fresh media (in a 9 mL culture tube). The number of trophozoites was counted using a haemocytometer and cells were incubated for 48 h with cell numbers being determined at 24 and 48 h.
Fig. 7 Recovery assay of Giardia duodenalis exposed to robenidine and metronidazole. Giardia trophozoites were exposed to robenidine or metronidazole for 5 h at 5x the IC50. Key: closed circle – growth control, triangle – metronidazole, square – robenidine, open circle – NCL 062, diamond – NCL 099. Cell numbers were determined at 24 and 48 h post exposure. Error ± SD.

In the case of `N=C(N/N=C/c1ccc(Cl)cc1)N/N=C/c1ccc(Cl)cc1` [Robenidine, robenidine], the IC50 [1] is reported as 2.9 ± 2.9 µM, the “MLC (minimum lethal concentration), Assemblage A” value ([1]; concentration at which no metabolism of resazurin was observed) is reported as 2.8 to 8.3 µM and the IC50 ([1]; Giardia duodenalis, 24 h) is reported as 2 µM. For the same compound, the GI50 at 24 h [2] was 17.7 µM, the “Effect on adherence of trophozoites” value [3] was “complete inhibition of adherence” and the GI50 [4] was 17.1 µM. The “Recovery of trophozoites after short-term exposure” value [5] was “unable to recover”.
